Measured values as given in US20240391940A1, “FUSED RING-CONTAINING COMPOUND, APPLICATION THEREOF, AND COMPOSITION CONTAINING SAME” (GenEros Biopharma Ltd., priority 2020, published 2024).

Columns and labels:
female BALB/c mice = assay: Toxicity, multiple administrations for 14 days in mice; format: in vivo; design: Changes in body weight of the mice in the toxicity test (group mean) / Changes in body weight of the mice in the toxicity test: unit not given here
Protocol: • Part I: Single administration. A total of 6 mice were used. They were randomly divided into 2 groups: the vehicle control and GEN1-284s (1000 mg/kg), dosed once by oral gavage and observed for 6 days, and changes in body weight and activities were recorded. • Part II: Multiple administrations. This experiment used a total of 6 mice. They were divided into two groups of 3: a GEN1-284s-1000 mg/kg group and a GEN1-284s-300 mg/kg group, and were intragastrically given GEN1-284s for 14 consecutive days at 200 μL each. The state and survival of the mice were observed every day, and their body weights were recorded. Two mice died 2 h after GEN1-284s-1000 mg/kg administration. The dose was changed to 600 mg/kg, and the experiment was continued.
This experiment used a total of 6 mice. They were divided into two groups of 3: a GEN1-284s-1000 mg/kg group and a GEN1-284s-300 mg/kg group, and were intragastrically given GEN1-284s for 14 consecutive days at 200 μL each. The state and survival of the mice were observed every day, and their body weights were recorded. Two mice died 2 h after GEN1-284s-1000 mg/kg administration. The dose was changed to 600 mg/kg, and the experiment was continued.
Each mouse was intragastrically administered GEN1-284s for 14 consecutive days in a volume of 200 μL/20 g. The state and survival of the mice were observed every day, and their body weights were recorded. Two mice died 2 h after GEN1-284s-1000 mg/kg administration. The dose was changed to 600 mg/kg, and the experiment was continued.
Changes in body weight and survival of the mice were observed during 6 days after the single administration, and changes in body weight and the survival of the mice were observed during 14 consecutive days of high-dose GEN1-284s administration.

[1] = system: STAT5 Y694 phosphorylation; assay: HTRF experiment: STAT5 Y694 phosphorylation in Hela cells; format: cell-based, Human; conditions: for Inhibition rate @10 μM: 10 μM compound, 2 h pretreatment, interferon stimulation 30 min
Protocol: A multifunctional microplate reader (TECAN; […] F PLEX); 96-well cell culture plates (Bioyong), HTRF 384-well low volume plates (Cisbio; Cat #66PL384025); Human interferon 0 (IFN-0) (GenScript; Cat #P01574), STAT5 phospho-Y694 kits (Cisbio; Cat #64AT5PEG).
Hela cells (American Type Culture Collection (ATCC), CCL-2) were cultured in a 96-well plate with DMEM containing 5% fetal bovine serum at a density of 3×10^4 cells/well. The cells were incubated overnight in a 37° C., 5% carbon dioxide humidified incubator. The next day, the original DMEM in the 96-well plate was blotted, and equal volumes of medium containing different concentrations of compounds (stock solutions of compounds prepared with dimethyl sulfoxide were diluted to desired concentrations in medium) were added for 2 h of pretreatment. The plate was left to stand in a 37° C. incubator. Human interferon 0 was then added to a final concentration of 10 nM for stimulation. The plate was gently shaken so the contents were well mixed, and the plate was then left to stand in a 37° C. incubator for 30 min.
The medium was removed, and the plate was washed once with an appropriate volume of PBS and then blotted dry. Then 1×lysis buffer was added at 40 μL/well, and the plate was left to stand at room temperature for 30 min (preparation of 1 mL of 1× lysis buffer: mixing well 740 μL of ddH2O with 250 μL of 4× lysis buffer and […]). After 30 min, the cells were repeatedly pipetted until the lysis buffer was not viscous (bubbles were avoided) so that sufficient lysis was achieved.
In an HTRF 384-well low volume plate, 4 μL of an antibody premix (containing two antibodies: Cryptate and d2: the two antibodies were each 20-fold diluted with detection buffer and were then mixed in equal volume to form the antibody premix) and 16 μL of the cell lysate were added to each well. The plate was sealed with a sealing membrane and then incubated overnight at room temperature in a dark place.
After the overnight incubation, signals at 665 nm and 620 nm were detected separately on a multifunctional microplate reader. The calculation formula for the STAT5 Y694 phosphorylation assay is: Ratio=[(signal 665 nm)/(signal 620 nm)]×10^4. A dimethyl sulfoxide-only treatment group was set as a negative control (RatioNegative), and an interferon 0 stimulation group without compound addition was set as a positive control (RatioPositive). The inhibition rates of different samples against STAT5 Y694 phosphorylation were normalized: inhibition rate=[1−(RatioExperiment−RatioNegative)/(RatioPositive−RatioNegative)]×100.

Row | IC50 [1] | Compound | Inhibition rate @10 μM [1] | other results
1 |  | O=C(Cc1ccc2ncccc2c1)N1CCC(n2c(=O)n(COP(=O)([O-])[O-])c3cccc(C(F)(F)F)c32)CC1.[Na+].[Na+] [Compound 284s] |  | Changes in body weight of the mice in the toxicity test (group mean) (female BALB/c mice; 300 mg/kg P.O daily, Day 1): 16.97; Changes in body weight of the mice in the toxicity test (group mean) (female BALB/c mice; 300 mg/kg P.O daily, Day 2): 16.93; Changes in body weight of the mice in the toxicity test (group mean) (female BALB/c mice; 300 mg/kg P.O daily, Day 3): 16.87; Changes in body weight of the mice in the toxicity test (group mean) (female BALB/c mice; 300 mg/kg P.O daily, Day 4): 17.17; Changes in body weight of the mice in the toxicity test (group mean) (female BALB/c mice; 300 mg/kg P.O daily, Day 5): 17.17; Changes in body weight of the mice in the toxicity test (group mean) (female BALB/c mice; 300 mg/kg P.O daily, Day 6): 17.23; Changes in body weight of the mice in the toxicity test (group mean) (female BALB/c mice; 300 mg/kg P.O daily, Day 8): 17.47; Changes in body weight of the mice in the toxicity test (group mean) (female BALB/c mice; 300 mg/kg P.O daily, Day 9): 17.17; Changes in body weight of the mice in the toxicity test (group mean) (female BALB/c mice; 300 mg/kg P.O daily, Day 10): 17.1; Changes in body weight of the mice in the toxicity test (group mean) (female BALB/c mice; 300 mg/kg P.O daily, Day 11): 17.3; Changes in body weight of the mice in the toxicity test (group mean) (female BALB/c mice; 300 mg/kg P.O daily, Day 12): 17.23; Changes in body weight of the mice in the toxicity test (group mean) (female BALB/c mice; 300 mg/kg P.O daily, Day 13): 17.47; Changes in body weight of the mice in the toxicity test (group mean) (female BALB/c mice; 300 mg/kg P.O daily, Day 14): 17.47; Changes in body weight of the mice in the toxicity test (group mean) (female BALB/c mice; 600 mg/kg group (1000 mg/kg, changed to 600 mg/kg on day 2) P.O daily, Day 1): 17.37; Changes in body weight of the mice in the toxicity test (female BALB/c mice; 600 mg/kg group (1000 mg/kg, changed to 600 mg/kg on day 2) P.O daily, Day 2): 16.9; Changes in body weight of the mice in the toxicity test (female BALB/c mice; 600 mg/kg group (1000 mg/kg, changed to 600 mg/kg on day 2) P.O daily, Day 3): 17.3; Changes in body weight of the mice in the toxicity test (female BALB/c mice; 600 mg/kg group (1000 mg/kg, changed to 600 mg/kg on day 2) P.O daily, Day 4): 17.3
2 |  | O=C(Cc1ccc2[nH]ccc2c1)N1CCC(n2c(=O)[nH]c3ccccc32)CC1 [GEN1-077, 3-[1-[2-(1H-Indol-5-yl)acetyl]-4-piperidinyl]-1H-benzimidazol-2-one] | 34.25% | 
3 |  | CN(C)c1ccc(CC(=O)N2CCC(n3c(=O)[nH]c4cccc(C(F)(F)F)c43)CC2)cc1 [GEN1-118, 1-(1-(2-(4-(Dimethylamino)phenyl)acetyl)piperidin-4-yl)-7-(trifluoromethyl)-1,3-dihydro-2H-benzo[d]imidazol-2-one] | 27.57% | 
4 |  | O=C(Cc1ccc2nccnc2c1)N1CCC(n2c(=O)[nH]c3cccc(C(F)(F)F)c32)CC1 [GEN1-140, 1-(1-(2-(Quinoxalin-6-yl)acetyl)piperidin-4-yl)-7-(trifluoromethyl)-1,3-dihydro-2H-benzo[d]imidazol-2-one] | 53.79% | 
5 |  | O=C(Cc1c[nH]c2ccccc12)N1CCC(n2c(=O)[nH]c3cccc(C(F)(F)F)c32)CC1 [GEN1-169, reference compound] | 13.47% | 
6 |  | O=C(Cc1ccc2sccc2c1)N1CCC(n2c(=O)[nH]c3cccc(C(F)(F)F)c32)CC1 [GEN1-298, 1-(1-(2-(Benzo[b]thiophen-5-yl)acetyl)piperidin-4-yl)-7-(trifluoromethyl)-1,3-dihydro-2H-benzo[d]imidazol-2-one] | 51.98% | 
7 | 7.6 µM | Cc1ccc2cc(CC(=O)N3CCC(n4c(=O)[nH]c5cccc(C(F)(F)F)c54)CC3)ccc2n1 [GEN1-300] | 72.83% | 
8 | 8.8 µM | O=C(Cc1ccc2nccc(Cl)c2c1)N1CCC(n2c(=O)[nH]c3cccc(C(F)(F)F)c32)CC1 [GEN1-301, 1-(1-(2-(4-Chloroquinolin-6-yl)acetyl)piperidin-4-yl)-7-(trifluoromethyl)-1,3-dihydro-2H-benzo[d]imidazol-2-one] | 80.70% | 
9 | 7 µM | O=C(Cc1ccc2nc(Cl)ccc2c1)N1CCC(n2c(=O)[nH]c3cccc(C(F)(F)F)c32)CC1 [GEN1-302, 1-(1-(2-(2-Chloroquinolin-6-yl)acetyl)piperidin-4-yl)-7-(trifluoromethyl)-1,3-dihydro-2H-benzo[d]imidazol-2-one] | 80.37% | 
10 | 5.5 µM | Cc1cc(CC(=O)N2CCC(n3c(=O)[nH]c4cccc(C(F)(F)F)c43)CC2)cc2cccnc12 [GEN1-303, 1-(1-(2-(8-Methylquinolin-6-yl)acetyl)piperidin-4-yl)-7-(trifluoromethyl)-1,3-dihydro-2H-benzo[d]imidazol-2-one] | 91.91% | 
11 |  | N#Cc1ccnc2ccc(CC(=O)N3CCC(n4c(=O)[nH]c5cccc(C(F)(F)F)c54)CC3)cc12 [GEN1-304, 6-(2-Oxo-2-(4-(2-oxo-7-(trifluoromethyl)-2,3-dihydro-1H-benzo[d]imidazol-1-yl)piperidin-1-yl)ethyl)quinoline-4-carbonitrile] | 40.76% | 
12 |  | COc1ccc2cc(CC(=O)N3CCC(n4c(=O)[nH]c5cccc(C(F)(F)F)c54)CC3)ccc2n1 [GEN1-305] | 63.05% | 
13 |  | O=C(Cc1ccc2ncccc2c1Cl)N1CCC(n2c(=O)[nH]c3cccc(C(F)(F)F)c32)CC1 [GEN1-306, 1-(1-(2-(5-Chloroquinolin-6-yl)acetyl)piperidin-4-yl)-7-(trifluoromethyl)-1,3-dihydro-2H-benzo[d]imidazol-2-one] | 95.64% | 
14 |  | O=C(Cc1ccc2ncc(C(F)(F)F)cc2c1)N1CCC(n2c(=O)[nH]c3cccc(C(F)(F)F)c32)CC1 [GEN1-312] | 55.50% | 

Row | Compound | IC50 [1] | Inhibition rate @10 μM [1] | other results
15 | O=C(Cc1ccc2ncccc2c1)N1CCC(n2c(=O)n(COP(=O)(O)O)c3cccc(C(F)(F)F)c32)CC1 [GEN1-284, (2-Oxo-3-(1-(2-(quinolin-6-yl)acetyl)piperidin-4-yl)-4-(trifluoromethyl)-2,3-dihydro-1H-benzo[d]imidazol-1-yl)methyl dihydrogen phosphate] | 3.9 µM | 80.21% | 
